Read-outs that look alike come from different tables or passages of the source.
Test system: Methanococcus maripaludis
Assay: Inhibition of methane production by Methanococcus maripaludis culture (pressure drop after 24 h)
Type: cell-based
Details: for Fold increase of Compound X combined with bromoform as compared to Compound X alone: bromoform 0.12 μM; for inhibition at 25 µM: Compound X 25 μM alone; for inhibition at 100 µM: Compound X 100 μM alone
Method: For this experiment, bromoform was prepped at 100 mM by adding 8.75 μl bromoform to 991 μl DMSO. This was diluted 10× to generate a 10 mM solution and further diluted to generate 0.12 mM stock solutions. Compound X stock solutions were prepared in DMSO (except for tannic acid, which was diluted in deionized water), to achieve the desired stock solutions required for testing. The experiment was set up by adding 5 ml of M141 medium (https://www.dsmz.de/microorganisms/medium/pdf/DSMZ_Medium141.pdf) to a screw cap Hungate tube followed by the addition of 5 μl Compound X and/or 5 μl bromoform or 5/10 μl DMSO as follows: • Tube 1: DMSO (10 μl) • Tube 2: Bromoform (5 μl, 0.120 mM) (120 nM final)+5 μl DMSO • Tube 3: Compound X (5 μl stock solution)+5 μl DMSO • Tube 4: Bromoform (5 μl 0.120 mM) (120 nM final)+Compound X (5 μl stock solution)
The concentration of Bromoform was fixed at 0.12 μM.
After the addition of the test substances, 500 μl of an overnight M. maripaludis culture was added to each reaction tube. Each tube was gassed with 80% H2/20% CO2 to 240 kPa and incubated at 37° C. for 24 h.
After the 24 h incubation the pressure inside the tube was measured using a manometer. Given that 5 moles of H2/CO2 are consumed to generate 1 mole of CH4 the drop in pressure observed was used to calculate the amount of methane by the control and test reactions from which a percent inhibition was calculated.
Table 1 below summarises the range of concentrations and the fold increase in inhibition of Compound X when tested with bromoform relative to the level of inhibition for Compound X when tested alone.

[1] = Compound X 25 μM + bromoform 0.12 μM, 24 h
[2] = Methanococcus maripaludis, 24 h, read-out: Methane inhibition of Compound X as a sole compound (%)
[3] = Compound X 500 μM + bromoform 0.12 μM, 24 h
[4] = Compound X 1 mM + bromoform 0.12 μM, 24 h
[5] = Compound X 100 μM + bromoform 0.12 μM, 24 h

In the case of `O=[N+]([O-])OCCCO` [3-Nitrooxypropanol], the “Methane inhibition in combination with Bromoform (%)” value (Compound X 0.78 μM-1.56 μM (range tested) + bromoform 0.12 μM, 24 h) was 91.3%, the “Fold increase of Compound X combined with bromoform as compared to Compound X alone” value (from here on “Fold increase of Compound X combined”) (Compound X 0.78 μM-1.56 μM (range tested)) was 91.3 fold and the inhibition (Methanococcus maripaludis, Compound X 0.78 μM-1.56 μM (range tested) alone, 24 h, read-out: Methane inhibition of Compound X as a sole compound (%)) was 1%.

In the case of `CC(C)=CCc1c(O)cc(O)c2c1O[C@H](c1ccc(O)cc1)CC2=O` [8-prenylnaringenin], the “Methane inhibition in combination with Bromoform (%)” value (Compound X 12.5 μM + bromoform 0.12 μM, 24 h) was 97.2%, the “Fold increase of Compound X combined” value (Compound X 12.5 μM) was 1.27 fold and the inhibition at 12.5 µM (Methanococcus maripaludis, Compound X 12.5 μM alone, 24 h, read-out: Methane inhibition of Compound X as a sole compound (%)) was 76.4%.

With `CC(C)=CCc1cc2c(cc1O)O[C@H](c1ccc(O)cc1)CC2=O` [Bavachin] the “Methane inhibition in combination with Bromoform (%)” value [1] was 57.4%, the “Fold increase of Compound X combined” value (Compound X 25 μM) was 57.4 fold and the inhibition at 25 µM [2] was 1%.

In the case of `Cc1ccc(C(C)C)cc1O` [Carvacrol], the “Methane inhibition in combination with Bromoform (%)” value [3] was 79.6%, the “Fold increase of Compound X combined” value (Compound X 500 μM) was 1.14 fold and the inhibition at 500 µM [2] was 69.6%.

`O=CC=Cc1ccccc1` [Cinnamaldehyde] was tested, and the “Methane inhibition in combination with Bromoform (%)” value [4] was 91.7%, the “Fold increase of Compound X combined” value (Compound X 1 mM) was 91.7 fold and the inhibition at 1000 µM (Methanococcus maripaludis, Compound X 1 mM alone, 24 h, read-out: Methane inhibition of Compound X as a sole compound (%)) was 1%.

In the case of `CC(C)=CCCC(C)=CC=O` [Citral], the “Methane inhibition in combination with Bromoform (%)” value [3] was 96.7%, the “Fold increase of Compound X combined” value (Compound X 500 μM) was 7.29 fold and the inhibition at 500 µM (Methanococcus maripaludis, Compound X 500 μM alone, 24 h, read-out: Methane inhibition of Compound X as a sole compound (%)) was 13.3%.

With `CC(C)=CCC/C(C)=C/Cc1cc(-c2coc3cc(O)ccc3c2=O)ccc1O` [Corylifol A] the “Methane inhibition in combination with Bromoform (%)” value (Compound X 3.125 μM + bromoform 0.12 μM, 24 h) was 96.1%, the “Methane inhibition of Compound X as a sole compound (%)” value (shortened to “Methane inhibition of Compound X … (%)”) (Compound X 3.125 μM alone, 24 h) was 1% and the “Fold increase of Compound X combined” value (Compound X 3.125 μM) was 96.1 fold.

With `O=C(O)C(Br)Br` [Dibromoacetic acid] the “Methane inhibition in combination with Bromoform (%)” value (Compound X 200 μM + bromoform 0.12 μM, 24 h) was 88.1%, the “Fold increase of Compound X combined” value (Compound X 200 μM) was 88.1 fold and the inhibition at 200 µM [2] was 1%.

In the case of `ClC(Br)Br` [Dibromochloromethane], the “Methane inhibition in combination with Bromoform (%)” value (Compound X 0.195 μM + bromoform 0.12 μM, 24 h) was 92.2%, the “Fold increase of Compound X combined” value (Compound X 0.195 μM) was 92.2 fold and the inhibition at 0.195 µM [2] was 1%.

For `CSSC` [Dimethyl disulfide], the “Methane inhibition in combination with Bromoform (%)” value [4] was 43.5%, the “Fold increase of Compound X combined” value (Compound X 1 mM) was 43.5 fold and the inhibition at 1000 µM [2] was 1%.

In the case of `CC(C)=CCC[C@](C)(O[C@@H]1O[C@H](CO[C@@H]2OC[C@H](O)[C@H](O)[C@H]2O)[C@@H](O)[C@H](O)[C@H]1O)[C@H]1CC[C@]2(C)[C@@H]1[C@H](O)C[C@@H]1[C@@]3(C)CC[C@H](O[C@@H]4O[C@H](CO)[C@@H](O)[C@H](O)[C@H]4O[C@@H]4O[C@H](CO)[C@@H](O)[C@H](O)[C@H]4O)C(C)(C)[C@@H]3CC[C@]12C` [Ginsenoside Rb2], the “Methane inhibition in combination with Bromoform (%)” value (Compound X 20 μM + bromoform 0.12 μM, 24 h) was 66.9%, the “Methane inhibition of Compound X … (%)” value (Compound X 20 μM alone, 24 h) was 44.7% and the “Fold increase of Compound X combined” value (Compound X 20 μM) was 1.42 fold.

In the case of `CC(C)=CCc1c(O)ccc(C(=O)/C=C/c2ccc(O)cc2)c1O` [Isobavachalcone], the “Methane inhibition in combination with Bromoform (%)” value (Compound X 3.125 μM-6.25 μM (range tested) + bromoform 0.12 μM, 24 h) was 93.4%, the “Fold increase of Compound X combined” value (Compound X 3.125 μM-6.25 μM (range tested)) was 1.12 fold and the inhibition (Methanococcus maripaludis, Compound X 3.125 μM-6.25 μM (range tested) alone, 24 h, read-out: Methane inhibition of Compound X as a sole compound (%)) was 83.4%.

For `CC(C)=CCc1c(-c2ccc(O)cc2O)oc2c3c(cc(O)c2c1=O)OC(C)(C)C=C3` [Morusin], the “Methane inhibition in combination with Bromoform (%)” value (Compound X 1.25 μM-10 μM (range tested) + bromoform 0.12 μM, 24 h) was 96.7% and the “Fold increase of Compound X combined” value (Compound X 1.25 μM-10 μM (range tested)) was 2.16 fold.

`O=c1c(O)c(-c2ccc(O)c(O)c2)oc2cc(O)cc(O)c12` [Quercetin] was tested, and the “Methane inhibition in combination with Bromoform (%)” value (Compound X 50 μM-100 μM (range tested) + bromoform 0.12 μM, 24 h) was 91.2% and the “Fold increase of Compound X combined” value (Compound X 50 μM-100 μM (range tested)) was 1.21 fold.

For `C[C@H]1O[C@@H](O[C@H]2CC[C@@]3(C)[C@@H](CC[C@]4(C)[C@@H]3C=CC3=C5CC(C)(C)CC[C@]5(CO)[C@H](O)C[C@]34C)[C@]2(C)CO)[C@H](O)[C@@H](O[C@@H]2O[C@H](CO)[C@@H](O)[C@H](O)[C@H]2O)[C@H]1O` [Saikosaponin b2], the “Methane inhibition in combination with Bromoform (%)” value (Compound X 10 μM + bromoform 0.12 μM, 24 h) was 55.6%, the “Methane inhibition of Compound X … (%)” value (Compound X 10 μM alone, 24 h) was 1% and the “Fold increase of Compound X combined” value (Compound X 10 μM) was 55.6 fold.

With `C=C[C@](C)(O)CC[C@@H]1[C@@]2(C)CCCC(C)(C)[C@@H]2CC[C@@]1(C)O` [Sclareol] the “Methane inhibition in combination with Bromoform (%)” value [1] was 61.2%, the “Fold increase of Compound X combined” value (Compound X 25 μM) was 56 fold and the inhibition at 25 µM [2] was 1.1%.

For `O=C(OC[C@H]1O[C@@H](OC(=O)c2cc(O)c(O)c(OC(=O)c3cc(O)c(O)c(O)c3)c2)[C@H](OC(=O)c2cc(O)c(O)c(OC(=O)c3cc(O)c(O)c(O)c3)c2)[C@@H](OC(=O)c2cc(O)c(O)c(OC(=O)c3cc(O)c(O)c(O)c3)c2)[C@@H]1OC(=O)c1cc(O)c(O)c(OC(=O)c2cc(O)c(O)c(O)c2)c1)c1cc(O)c(O)c(OC(=O)c2cc(O)c(O)c(O)c2)c1` [Tannic acid], the “Methane inhibition in combination with Bromoform (%)” value [5] was 56.1%, the “Fold increase of Compound X combined” value (Compound X 100 μM) was 1.16 fold and the inhibition at 100 µM [2] was 48.3%.

For `C[C@H]1[C@H](C)CC[C@]2(C(=O)O)CC[C@]3(C)C(=CC[C@@H]4[C@@]5(C)CC[C@H](O)C(C)(C)[C@@H]5CC[C@]43C)[C@H]12` [Ursolic Acid], the “Methane inhibition in combination with Bromoform (%)” value [5] was 85.2%, the “Fold increase of Compound X combined” value (Compound X 100 μM) was 85.2 fold and the inhibition at 100 µM [2] was 1%.

`COc1cc(O)c(CC=C(C)C)c(O)c1C(=O)/C=C/c1ccc(O)cc1` [Xanthohumol] was tested, and the “Methane inhibition in combination with Bromoform (%)” value (Compound X 6.25 μM-12.5 μM (range tested) + bromoform 0.12 μM, 24 h) was 95.1%, the “Fold increase of Compound X combined” value (Compound X 6.25 μM-12.5 μM (range tested)) was 1.5 fold and the inhibition (Methanococcus maripaludis, Compound X 6.25 μM-12.5 μM (range tested) alone, 24 h, read-out: Methane inhibition of Compound X as a sole compound (%)) was 63.6%.

For Bavachinin, the “Methane inhibition in combination with Bromoform (%)” value (Compound X 12.5 μM-100 μM (range tested) + bromoform 0.12 μM, 24 h) was 97.2%, the “Methane inhibition of Compound X … (%)” value (Compound X 12.5 μM-100 μM (range tested) alone, 24 h) was 43% and the “Fold increase of Compound X combined” value (Compound X 12.5 μM-100 μM (range tested)) was 2.26 fold.

Source: US20260248157A1, “COMPOSITIONS FOR REDUCING METHANE EMISSION” (MOOTRAL INNOVATIONS LIMITED, priority 2022, published 2026)
